Results on 2 molecules are retold here after ChEMBL document CHEMBL3603757, “Discovery of a novel tricyclic 4H-thiazolo[5',4':4,5]pyrano[2,3-c]pyridine-2-amino scaffold and its application in a PI3Kα inhibitor with high PI3K isoform selectivity and potent cellular activity” (Bioorg Med Chem Lett, 2015).

≈ marks a conversion by molar mass, not a printed value.

Series [1] relates to Rattus norvegicus. The series can be described thus: Dose normalized Cmax in Sprague-Dawley rat at 3 mg/kg, po. It is filed as ADME, organism-based. As to conditions: in vivo.
Series [2] is described as follows: Terminal half life in Sprague-Dawley rat at 1 mg/kg, iv. It is filed as ADME, organism-based. As to conditions: in vivo, read-out: beta t1/2 (converted).
Series [3] can be described thus: Plasma protein binding in rat. It is filed as ADME, cell-free. As to conditions: read-out: PPB (converted).
Series [4] addresses Phosphatidylinositol 4,5-bisphosphate 3-kinase catalytic subunit gamma isoform (Homo sapiens, UniProt P48736). The series can be described thus: Inhibition of P110gamma (unknown origin) using PI or PIP2:PS as substrate measured for 15 to 60 mins by TR-FRET analysis. Background: Time-resolved FRET reads energy transfer from a long-lived donor to a nearby acceptor.
Series [5] concerns Rattus norvegicus. Briefly: Dose normalized AUC in Sprague-Dawley rat at 3 mg/kg, po. In kind it is ADME, organism-based. As to conditions: in vivo.
A short description of series [6]: Tmax in Sprague-Dawley rat at 3 mg/kg, po. It is filed as ADME, organism-based. As to conditions: in vivo.
In series [7] the target is T1, Phosphatidylinositol 4,5-bisphosphate 3-kinase catalytic subunit alpha isoform (Homo sapiens, UniProt P42336). The series can be described thus: Inhibition of myristoylated human P110alpha expressed in Rat1 cells assessed as inhibition of Akt phosphorylation at Serine 473 by Western blot analysis. In kind it is cell-based. (A western blot detects proteins with antibodies after separation by electrophoresis.)

The nature of series [8]: Solubility of the compound in water at pH 6.8. It is filed as physicochemical.
The subject of series [9] is Rattus norvegicus. Briefly: Dose normalized AUC in Sprague-Dawley rat at 1 mg/kg, iv. In kind it is ADME, organism-based. As to conditions: in vivo.
Series [10] has as its target T2, Phosphatidylinositol 4,5-bisphosphate 3-kinase catalytic subunit beta isoform (Homo sapiens, UniProt P42338). Briefly: Inhibition of P110beta (unknown origin) by Kinase-Glo assay. In general terms: Kinase-Glo reads ATP consumption through a luciferase reaction.
A short description of series [11]: Solubility of the compound in water at pH 4. In kind it is physicochemical.
A short description of series [12]: Volume of distribution at steady state in Sprague-Dawley rat at 1 mg/kg, iv. It is filed as ADME, organism-based. As to conditions: in vivo, read-out: Vdss.
Series [13] concerns the target T1, Phosphatidylinositol 4,5-bisphosphate 3-kinase catalytic subunit alpha isoform. The series can be described thus: Inhibition of P110alpha (unknown origin) by Kinase-Glo assay.
Series [14] addresses T3, Phosphatidylinositol 4,5-bisphosphate 3-kinase catalytic subunit delta isoform (Homo sapiens, UniProt O00329).
T3 sequence (O00329 whole entry): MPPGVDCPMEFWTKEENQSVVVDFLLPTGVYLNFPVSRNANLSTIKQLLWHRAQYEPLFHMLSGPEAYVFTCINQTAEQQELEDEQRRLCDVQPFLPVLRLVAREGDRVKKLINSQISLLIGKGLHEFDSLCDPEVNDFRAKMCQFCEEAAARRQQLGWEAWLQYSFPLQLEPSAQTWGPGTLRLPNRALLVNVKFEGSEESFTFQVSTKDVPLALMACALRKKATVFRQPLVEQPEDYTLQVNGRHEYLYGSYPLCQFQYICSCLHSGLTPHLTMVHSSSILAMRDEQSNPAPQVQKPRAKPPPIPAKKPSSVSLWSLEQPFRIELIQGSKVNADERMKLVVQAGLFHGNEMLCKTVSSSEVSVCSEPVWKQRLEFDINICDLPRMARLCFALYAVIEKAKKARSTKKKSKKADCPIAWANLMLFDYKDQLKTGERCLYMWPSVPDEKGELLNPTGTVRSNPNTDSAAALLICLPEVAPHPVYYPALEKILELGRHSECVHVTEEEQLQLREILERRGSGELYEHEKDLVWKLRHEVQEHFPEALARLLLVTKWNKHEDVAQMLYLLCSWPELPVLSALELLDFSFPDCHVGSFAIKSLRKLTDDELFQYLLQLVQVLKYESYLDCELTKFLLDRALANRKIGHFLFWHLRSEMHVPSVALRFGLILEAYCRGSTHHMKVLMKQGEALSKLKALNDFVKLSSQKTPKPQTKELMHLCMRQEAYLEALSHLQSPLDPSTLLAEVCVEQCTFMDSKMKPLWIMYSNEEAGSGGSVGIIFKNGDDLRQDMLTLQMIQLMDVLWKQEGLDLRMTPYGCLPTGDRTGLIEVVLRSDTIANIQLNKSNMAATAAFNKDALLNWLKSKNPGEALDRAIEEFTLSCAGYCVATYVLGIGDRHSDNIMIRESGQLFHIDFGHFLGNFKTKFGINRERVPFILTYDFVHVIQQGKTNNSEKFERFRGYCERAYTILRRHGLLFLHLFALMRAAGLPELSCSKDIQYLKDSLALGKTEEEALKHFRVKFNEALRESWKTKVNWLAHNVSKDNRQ
The series can be described thus: Inhibition of myristoylated human P110delta expressed in Rat1 cells assessed as inhibition of Akt phosphorylation at Serine 473 by Western blot analysis. In kind it is cell-based.

A short description of series [15]: Oral bioavailability in Sprague-Dawley rat at 3 mg/kg. It is filed as ADME, organism-based. As to conditions: in vivo.
Series [16] concerns the target T2, Phosphatidylinositol 4,5-bisphosphate 3-kinase catalytic subunit beta isoform. The series can be described thus: Inhibition of myristoylated human P110beta expressed in Rat1 cells assessed as inhibition of Akt phosphorylation at Serine 473 by Western blot analysis. In kind it is cell-based.
Series [17] addresses T3, Phosphatidylinositol 4,5-bisphosphate 3-kinase catalytic subunit delta isoform. The series can be described thus: Inhibition of P110delta (unknown origin) using PI or PIP2:PS as substrate measured for 15 to 60 mins by TR-FRET analysis.
The nature of series [18]: Solubility of the compound in […]. It is filed as physicochemical.
A short description of series [19]: Clearance in Sprague-Dawley rat at 1 mg/kg, iv. As to conditions: in vivo. It is filed as ADME, organism-based.

T2 sequence (P42338 whole entry, canonical isoform): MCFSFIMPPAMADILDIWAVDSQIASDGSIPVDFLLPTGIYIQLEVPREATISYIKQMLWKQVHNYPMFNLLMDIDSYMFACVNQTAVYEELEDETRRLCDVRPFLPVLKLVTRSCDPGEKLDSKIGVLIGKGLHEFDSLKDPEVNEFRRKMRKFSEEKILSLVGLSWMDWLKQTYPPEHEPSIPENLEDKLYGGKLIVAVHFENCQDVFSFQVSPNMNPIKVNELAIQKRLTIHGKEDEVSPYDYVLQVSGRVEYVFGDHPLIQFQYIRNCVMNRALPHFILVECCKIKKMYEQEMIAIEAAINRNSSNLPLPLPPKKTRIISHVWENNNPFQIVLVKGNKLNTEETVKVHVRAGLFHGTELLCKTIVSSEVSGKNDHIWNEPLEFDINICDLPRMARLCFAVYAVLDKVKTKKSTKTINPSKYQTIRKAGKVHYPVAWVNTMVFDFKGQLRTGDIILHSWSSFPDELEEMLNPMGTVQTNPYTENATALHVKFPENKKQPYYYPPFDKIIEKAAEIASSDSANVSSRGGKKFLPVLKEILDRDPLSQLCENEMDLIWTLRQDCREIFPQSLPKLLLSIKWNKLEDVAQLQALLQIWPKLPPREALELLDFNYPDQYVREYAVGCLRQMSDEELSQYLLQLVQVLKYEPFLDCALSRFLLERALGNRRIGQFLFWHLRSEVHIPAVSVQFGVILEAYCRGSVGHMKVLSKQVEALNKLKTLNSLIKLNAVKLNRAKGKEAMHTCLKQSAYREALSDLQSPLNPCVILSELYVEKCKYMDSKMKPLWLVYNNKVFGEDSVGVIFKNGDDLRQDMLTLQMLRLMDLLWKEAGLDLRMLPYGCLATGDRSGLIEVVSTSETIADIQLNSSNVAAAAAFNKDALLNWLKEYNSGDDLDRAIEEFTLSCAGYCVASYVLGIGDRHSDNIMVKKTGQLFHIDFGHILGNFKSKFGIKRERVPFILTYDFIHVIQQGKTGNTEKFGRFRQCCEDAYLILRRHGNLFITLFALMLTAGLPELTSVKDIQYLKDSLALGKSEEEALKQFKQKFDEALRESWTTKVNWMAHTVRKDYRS
T1 sequence (P42336 whole entry, canonical isoform): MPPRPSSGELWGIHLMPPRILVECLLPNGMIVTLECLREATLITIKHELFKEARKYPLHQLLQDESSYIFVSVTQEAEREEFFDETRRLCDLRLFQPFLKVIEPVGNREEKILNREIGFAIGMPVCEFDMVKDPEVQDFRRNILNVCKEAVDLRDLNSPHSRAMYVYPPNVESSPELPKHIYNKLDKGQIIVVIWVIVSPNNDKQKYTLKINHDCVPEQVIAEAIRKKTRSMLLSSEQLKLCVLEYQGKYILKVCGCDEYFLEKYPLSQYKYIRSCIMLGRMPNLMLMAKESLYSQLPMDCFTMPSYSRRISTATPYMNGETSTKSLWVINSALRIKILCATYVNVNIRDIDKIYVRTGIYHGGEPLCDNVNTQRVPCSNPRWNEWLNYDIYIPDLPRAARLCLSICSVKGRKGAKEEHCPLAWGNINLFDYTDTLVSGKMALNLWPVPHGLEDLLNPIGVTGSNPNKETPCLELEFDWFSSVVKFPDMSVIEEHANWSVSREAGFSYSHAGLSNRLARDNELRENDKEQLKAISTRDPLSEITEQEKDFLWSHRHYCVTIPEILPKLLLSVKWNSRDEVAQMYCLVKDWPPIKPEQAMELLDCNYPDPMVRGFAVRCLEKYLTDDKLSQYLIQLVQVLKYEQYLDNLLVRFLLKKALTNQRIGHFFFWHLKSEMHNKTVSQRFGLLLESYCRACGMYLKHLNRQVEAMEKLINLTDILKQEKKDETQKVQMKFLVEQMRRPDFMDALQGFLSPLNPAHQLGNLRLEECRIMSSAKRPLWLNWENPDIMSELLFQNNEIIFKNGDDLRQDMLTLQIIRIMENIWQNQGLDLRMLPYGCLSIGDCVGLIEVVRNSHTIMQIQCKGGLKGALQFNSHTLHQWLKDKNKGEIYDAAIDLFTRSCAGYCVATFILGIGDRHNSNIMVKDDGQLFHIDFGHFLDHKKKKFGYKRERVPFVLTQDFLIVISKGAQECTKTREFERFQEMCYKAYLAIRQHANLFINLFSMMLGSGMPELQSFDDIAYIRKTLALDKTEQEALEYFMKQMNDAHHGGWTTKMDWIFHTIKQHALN
Sequence of Phosphatidylinositol 4,5-bisphosphate 3-kinase catalytic subunit gamma isoform (P48736 whole entry, canonical isoform): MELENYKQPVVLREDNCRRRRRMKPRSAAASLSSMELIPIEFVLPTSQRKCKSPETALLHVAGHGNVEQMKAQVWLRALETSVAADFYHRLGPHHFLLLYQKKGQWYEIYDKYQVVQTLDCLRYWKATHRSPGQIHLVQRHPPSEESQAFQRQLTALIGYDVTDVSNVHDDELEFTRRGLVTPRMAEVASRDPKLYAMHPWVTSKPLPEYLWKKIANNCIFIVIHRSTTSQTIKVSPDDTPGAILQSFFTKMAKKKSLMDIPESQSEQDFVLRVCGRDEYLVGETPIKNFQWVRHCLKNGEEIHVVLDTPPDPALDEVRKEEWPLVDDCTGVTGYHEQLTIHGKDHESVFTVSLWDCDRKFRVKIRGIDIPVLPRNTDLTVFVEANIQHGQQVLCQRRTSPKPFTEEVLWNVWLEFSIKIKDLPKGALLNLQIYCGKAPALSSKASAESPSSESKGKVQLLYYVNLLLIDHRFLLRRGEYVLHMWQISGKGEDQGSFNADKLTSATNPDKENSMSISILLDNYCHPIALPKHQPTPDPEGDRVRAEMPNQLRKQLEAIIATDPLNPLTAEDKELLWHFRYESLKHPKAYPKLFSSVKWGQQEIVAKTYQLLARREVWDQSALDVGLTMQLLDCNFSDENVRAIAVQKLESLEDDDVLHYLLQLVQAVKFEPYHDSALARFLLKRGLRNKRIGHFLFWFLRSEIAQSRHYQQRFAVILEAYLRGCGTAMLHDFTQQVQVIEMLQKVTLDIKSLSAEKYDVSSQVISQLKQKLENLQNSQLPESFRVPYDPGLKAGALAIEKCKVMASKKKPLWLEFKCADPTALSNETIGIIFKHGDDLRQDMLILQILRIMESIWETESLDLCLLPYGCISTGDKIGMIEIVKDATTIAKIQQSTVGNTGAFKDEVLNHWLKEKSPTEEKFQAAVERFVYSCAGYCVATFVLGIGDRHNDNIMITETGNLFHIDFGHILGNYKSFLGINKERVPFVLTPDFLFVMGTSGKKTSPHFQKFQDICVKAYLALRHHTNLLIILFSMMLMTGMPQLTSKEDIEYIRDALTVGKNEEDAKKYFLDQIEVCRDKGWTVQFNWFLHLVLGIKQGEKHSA

The term IC50 denotes the concentration that inhibits the measured activity by half. One may read the Tmax as the time at which the peak concentration occurs. What is called solubility is the concentration that dissolves in the medium under given conditions. Higher therefore signals a readily soluble substance. As a reminder, the bioavailability is dose-corrected exposure relative to a reference, in per cent. The low end stands for little systemic uptake, the high end for much systemic uptake. The clearance is the rate of elimination divided by the concentration. A low value points to inefficient removal. `C[C@@H]1CCN(C(=O)Nc2nc3c(s2)-c2cc(C(C)(C)C(F)(F)F)ncc2OC3)[C@@H]1C(N)=O` registered a Cmax/dose in series [1] of 0.061 µM. The half-life in [2] is 1.4 h. Besides, the fraction unbound in [3] was 0.033. The IC50 came to 0.2 µM in [4]; 0.011 µM in [7]; 0.67 µM in [10]; 0.005 µM in [13]; 0.54 µM in series [14]; 1.11 µM in series [16]. In series [17], this molecule returned a concentration for half-maximal inhibition (IC50) of 0.22 µM. Besides, the figures for the AUC/dose in [5] and in series [9] were 228 nM·h and 1368 nM·h, respectively. The Tmax in [6] turned out to be 1.2 h. In addition, the solubility in series [8] stood at 260 µM (≈ 122 µg/mL); in [11], 450 µM (≈ 211 µg/mL); in series [18], 410 µM (≈ 192 µg/mL). Also, in series [12], the Vd was 1.8 L/kg. This molecule also returned a bioavailability in series [15] of 17%. Further, the clearance in [19] was 1.62 L/h/kg.

As for `Cc1nc(NC(=O)N2CC[C@@H](C)[C@H]2C(N)=O)sc1-c1ccnc(C(C)(C)C(F)(F)F)c1`, the IC50 in series [4] worked out at 0.23 µM; in [7], 0.019 µM; in series [10] it was 1.04 µM; in series [13] it was 0.019 µM; in series [14] it was 0.616 µM; in series [16], 2 µM. The molecule also yielded a 50% inhibitory concentration (IC50) in series [17] of 0.39 µM. Also, the solubility in series [8] is 23 µM (≈ 10.5 µg/mL); in series [11], 35 µM (≈ 15.9 µg/mL); in [18], 31 µM (≈ 14.1 µg/mL).
